Literature values in patent US7935665B2, “Non-corrosive cleaning compositions for removing etch residues” (Fujifilm Electronic Materials U.S.A., Inc., priority 2002, dated 2011).

Settings: of the acid in the formulation

| PKa2 | pKa1 | Structure (SMILES) |
| --- | --- | --- |
| 5.1 | 3.48 | O=C(O)CC(O)C(=O)O (racemic) [DL-malic acid] |
| – | 3.86 | O=C(O)[C@H](O)[C@@H](O)[C@H](O)[C@H](O)CO [D-gluconic acid] |
